The results in this text go back to ChEMBL document CHEMBL1201862, “PubChem BioAssay data set” (2004).

The test system of one series is HEK293. Briefly: cells. The class given is functional, cell-based. Conditions: Homo sapiens.
In series [1] the target is T1, Nuclear receptor subfamily 0 group B member 1 (Homo sapiens, UniProt P51843).
T1 sequence (P51843 whole entry): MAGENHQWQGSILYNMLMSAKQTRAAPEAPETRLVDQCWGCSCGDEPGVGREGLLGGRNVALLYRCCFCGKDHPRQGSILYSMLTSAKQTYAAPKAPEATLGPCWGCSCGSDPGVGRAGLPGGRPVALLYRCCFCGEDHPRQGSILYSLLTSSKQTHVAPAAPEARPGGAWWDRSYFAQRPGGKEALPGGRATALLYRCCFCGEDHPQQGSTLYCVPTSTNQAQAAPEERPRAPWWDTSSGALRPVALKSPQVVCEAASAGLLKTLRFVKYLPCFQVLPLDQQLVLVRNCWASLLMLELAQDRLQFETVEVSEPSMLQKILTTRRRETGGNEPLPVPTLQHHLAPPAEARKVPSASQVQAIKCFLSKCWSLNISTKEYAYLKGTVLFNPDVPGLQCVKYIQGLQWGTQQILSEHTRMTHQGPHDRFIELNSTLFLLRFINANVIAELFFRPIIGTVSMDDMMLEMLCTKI
Briefly: Luminescence-based cell-based high throughput dose response assay for inhibitors of the orphan nuclear receptor subfamily 0, group B, member 1 (DAX1; NR0B1). [Related pubchem assays (depositor defined):AID504766, AID504790]. Type of series: functional.

For a further series, the system named is HeLa. As to the kind of experiment: HeLa cell cytotoxicity, dose response, cytotoxicity control for MITF activator project, CellTiter-Glo luminescence, cherry-pick samples (AID 540259). To be noted: Homo sapiens. The class given is functional, cell-based.
The target in the next series is T2, Protein skinhead-1 (Caenorhabditis elegans, UniProt P34707).
T2 sequence (P34707 whole entry): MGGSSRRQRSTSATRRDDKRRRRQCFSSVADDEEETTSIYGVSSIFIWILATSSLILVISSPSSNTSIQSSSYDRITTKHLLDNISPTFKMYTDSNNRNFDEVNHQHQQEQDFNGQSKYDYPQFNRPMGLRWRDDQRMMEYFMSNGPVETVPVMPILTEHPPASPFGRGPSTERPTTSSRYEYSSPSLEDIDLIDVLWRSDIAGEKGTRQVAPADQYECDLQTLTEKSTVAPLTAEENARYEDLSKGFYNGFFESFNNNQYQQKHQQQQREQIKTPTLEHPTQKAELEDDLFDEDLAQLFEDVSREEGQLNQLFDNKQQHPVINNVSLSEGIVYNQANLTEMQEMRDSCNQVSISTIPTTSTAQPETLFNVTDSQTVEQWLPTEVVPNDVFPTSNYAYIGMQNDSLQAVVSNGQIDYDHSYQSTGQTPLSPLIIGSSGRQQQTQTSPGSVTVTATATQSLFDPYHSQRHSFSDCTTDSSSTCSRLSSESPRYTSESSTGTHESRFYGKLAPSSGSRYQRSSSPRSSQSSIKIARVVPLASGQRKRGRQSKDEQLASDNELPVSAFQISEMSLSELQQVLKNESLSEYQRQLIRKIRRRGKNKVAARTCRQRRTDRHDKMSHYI
The class given is functional.

The next series addresses T3, CAAX prenyl protease 2 (Homo sapiens, UniProt Q9Y256).
T3 sequence (Q9Y256 whole entry): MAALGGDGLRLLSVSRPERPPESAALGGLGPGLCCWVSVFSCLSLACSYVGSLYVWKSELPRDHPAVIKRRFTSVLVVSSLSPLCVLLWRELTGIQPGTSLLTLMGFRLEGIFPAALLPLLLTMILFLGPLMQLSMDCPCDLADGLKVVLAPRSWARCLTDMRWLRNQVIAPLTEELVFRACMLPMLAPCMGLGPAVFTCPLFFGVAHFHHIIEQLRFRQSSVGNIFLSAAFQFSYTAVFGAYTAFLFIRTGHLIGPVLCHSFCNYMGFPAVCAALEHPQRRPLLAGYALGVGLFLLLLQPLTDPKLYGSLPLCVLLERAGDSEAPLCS
As to the kind of experiment: human Rce1 protease inhibitors, dose response, biochemical, yeast membranes, quenched-peptide fluorescence, cherry-pick (AID 588849).

The nature of series [2]: HeLa cell cytotoxicity, dose response, cytotoxicity control for MgcRacGAP inhibitor project (AID 624300). The class given is functional.
Series [3] concerns the target T4, Rac GTPase-activating protein 1 (Homo sapiens, UniProt Q9H0H5).
T4 sequence (Q9H0H5 whole entry): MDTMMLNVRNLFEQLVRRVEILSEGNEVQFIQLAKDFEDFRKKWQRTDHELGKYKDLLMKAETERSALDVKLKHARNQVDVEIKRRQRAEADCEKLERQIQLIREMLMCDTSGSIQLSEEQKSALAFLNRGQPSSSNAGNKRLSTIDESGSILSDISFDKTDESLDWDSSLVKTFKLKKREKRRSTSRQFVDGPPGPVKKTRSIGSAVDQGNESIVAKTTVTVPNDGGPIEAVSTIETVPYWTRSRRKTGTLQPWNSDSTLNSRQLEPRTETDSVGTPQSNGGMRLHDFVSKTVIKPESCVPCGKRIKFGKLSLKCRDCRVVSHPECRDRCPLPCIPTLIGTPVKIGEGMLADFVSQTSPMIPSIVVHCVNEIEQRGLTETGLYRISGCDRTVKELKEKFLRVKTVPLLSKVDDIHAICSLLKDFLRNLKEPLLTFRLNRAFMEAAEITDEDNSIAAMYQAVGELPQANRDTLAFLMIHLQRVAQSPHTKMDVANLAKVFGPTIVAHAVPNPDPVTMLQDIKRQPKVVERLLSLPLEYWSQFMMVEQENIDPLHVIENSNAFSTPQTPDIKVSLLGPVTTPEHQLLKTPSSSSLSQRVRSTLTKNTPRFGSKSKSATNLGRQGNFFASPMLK
Briefly: MgcRacGAP GTPase-activating activity inhibitors, confirmation, biochemical, ADP Hunter fluorescence, primary and confirmatory (AID 624330). Type of series: functional.

A further series has as its target Trypsin (Sus scrofa, UniProt P00761). Briefly: porcine trypsin inhibitors, dose response, selectivity assay for Rce1 protease inhibitor project, biochemical, quenched peptide fluorescence, cherry-pick (AID 488789).
Series [4] has as its target FAD-linked sulfhydryl oxidase ALR (Homo sapiens, UniProt P55789). Briefly: inhibitors of human ALR sulfhydryl oxidase, dose response, biochemical, H2O2 detection, luminescence, cherry-pick (AID 493248).
The next series addresses Cytochrome P450 2C19 (Homo sapiens, UniProt P33261). Briefly: Cytochrome panel assay with activity outcomes. Panel member name: p450-cyp2c19 Compounds with AC50 equal or less than 10 uM are considered active. The class given is functional.
The next series has as its target Cytochrome P450 2D6 (Homo sapiens, UniProt P10635).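 Also: CYP2D6 member of a cytochrome P450 panel assay.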
Series [5] concerns the target T5, Ubiquitin-conjugating enzyme E2 N (Homo sapiens, UniProt P61088).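 Also: Dose-response confirmation in a TR-FRET assay detecting UBC13-driven polyubiquitin chain formation, inhibition measured.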
T5 sequence (P61088 whole entry): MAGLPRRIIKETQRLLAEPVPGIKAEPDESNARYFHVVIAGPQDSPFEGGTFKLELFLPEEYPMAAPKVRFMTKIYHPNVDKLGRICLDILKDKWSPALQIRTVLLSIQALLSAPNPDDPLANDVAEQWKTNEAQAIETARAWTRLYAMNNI
Type of series: functional.

The nature of series [6]: Luminescence Cell-Based Dose Retest to Confirm Inhibitors of Cancer Stem Cells. [Related pubchem assays (depositor defined):AID2717, AID2721]. The class given is functional. Conditions: Homo sapiens.
The test system of the next series is A-375. As to the kind of experiment: A375 melanoma cell viability reduction, dose response, counter-screen for MITF modulator project, cherry-pick samples, set 2 (AID 540335). Type of series: functional, cell-based. To be noted: Homo sapiens.
A further series concerns the target Cytochrome P450 2C9 (Homo sapiens, UniProt P11712).
Series [7] deals with T6, Cytochrome P450 3A4 (Homo sapiens, UniProt P08684).
The nature of series [8]: A cytotoxicity screen of small molecule inhibitors of the PhoP region in Salmonella typhi identified in the primary screen. [Related pubchem assays: 1850, 1864, 1985 ]. The class given is functional.
The target in series [9] is T7, Small ubiquitin-related modifier 1 (Homo sapiens, UniProt P63165). As to the kind of experiment: inhibitors of SUMO1 partner interactions, dose response, biochemical, FRET (AID 624383). The class given is functional. Conditions: read-out: IC50_Mean.
Series [10] has as its target Induced myeloid leukemia cell differentiation protein Mcl-1 (Homo sapiens, UniProt Q07820). Type of series: functional.
Series [11] concerns Streptococcus sp. 'group A'. Briefly: growth inhibition of control SK(-) GAS strain, dose response, counter-screen for streptokinase expression inhibitor project, luminescence, kanamycin, BacTiterGlo, confirmation (AID 1900). The class given is functional, organism-based. (Counterscreens check selectivity or assay interference.)
The target of the next series is T8, Streptokinase A (Streptococcus pyogenes serotype M1, UniProt P10520).
T8 sequence (P10520 whole entry): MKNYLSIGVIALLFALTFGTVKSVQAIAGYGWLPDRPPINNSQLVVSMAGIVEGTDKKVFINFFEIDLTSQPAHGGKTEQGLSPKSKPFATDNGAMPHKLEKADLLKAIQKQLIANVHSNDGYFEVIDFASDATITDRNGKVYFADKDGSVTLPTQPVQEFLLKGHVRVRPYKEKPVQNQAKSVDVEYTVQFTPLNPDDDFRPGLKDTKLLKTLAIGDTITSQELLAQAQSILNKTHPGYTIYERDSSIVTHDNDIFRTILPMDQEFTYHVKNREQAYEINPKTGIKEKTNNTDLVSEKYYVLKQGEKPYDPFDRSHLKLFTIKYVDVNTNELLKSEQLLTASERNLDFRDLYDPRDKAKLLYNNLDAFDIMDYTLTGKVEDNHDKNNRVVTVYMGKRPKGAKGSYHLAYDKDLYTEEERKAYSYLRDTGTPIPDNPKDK
As to the kind of experiment: S. pyogenes streptokinase expression inhibitors, potency, dose response, plasminogen activation absorbance, OD405 (AID 1914).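 Also: secreted streptokinase activity via plasminogen activation per viability signal from cell pellet.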 The class given is functional, Streptococcus pyogenes M1 GAS.

Series [12] addresses T7, Small ubiquitin-related modifier 1. As to the kind of experiment: inhibitors of SUMO1 peptide binding, dose response, biochemical, fluorescence polarization, uHTS hits (AID 624382). The class given is functional. To be noted: read-out: IC50_Mean. For orientation: In fluorescence polarisation assays a small probe gives low polarisation when free and higher when bound to something large.

A further series concerns Streptococcus. As to the kind of experiment: Group A Streptococcus viability loss, dose response, counter-screen for streptokinase expression inhibitor project, luminescence, BacTiterGlo (AID 1915).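 Also: potency for reduction of bacterial viability or growth.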 The class given is functional, organism-based.
The target in series [13] is T6, Cytochrome P450 3A4. The source holds these as a separate data set.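 Also: CYP3A4 tested as one member of a cytochrome P450 panel screen.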

The source made the active and inactive calls.

Chain of Cytochrome P450 2D6 (P10635 whole entry): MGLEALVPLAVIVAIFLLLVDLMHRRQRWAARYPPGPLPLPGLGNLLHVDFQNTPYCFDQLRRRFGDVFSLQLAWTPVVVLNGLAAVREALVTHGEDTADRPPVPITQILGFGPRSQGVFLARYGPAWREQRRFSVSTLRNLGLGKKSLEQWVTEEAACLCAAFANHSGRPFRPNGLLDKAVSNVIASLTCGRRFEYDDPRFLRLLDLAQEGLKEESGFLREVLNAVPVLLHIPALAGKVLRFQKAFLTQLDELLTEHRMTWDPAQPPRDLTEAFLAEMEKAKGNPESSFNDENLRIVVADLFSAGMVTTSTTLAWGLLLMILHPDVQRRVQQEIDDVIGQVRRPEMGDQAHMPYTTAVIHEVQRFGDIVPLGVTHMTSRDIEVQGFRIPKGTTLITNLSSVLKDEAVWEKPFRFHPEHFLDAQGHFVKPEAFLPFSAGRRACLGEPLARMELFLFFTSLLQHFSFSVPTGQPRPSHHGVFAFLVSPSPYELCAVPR
Chain of Cytochrome P450 2C19 (P33261 whole entry): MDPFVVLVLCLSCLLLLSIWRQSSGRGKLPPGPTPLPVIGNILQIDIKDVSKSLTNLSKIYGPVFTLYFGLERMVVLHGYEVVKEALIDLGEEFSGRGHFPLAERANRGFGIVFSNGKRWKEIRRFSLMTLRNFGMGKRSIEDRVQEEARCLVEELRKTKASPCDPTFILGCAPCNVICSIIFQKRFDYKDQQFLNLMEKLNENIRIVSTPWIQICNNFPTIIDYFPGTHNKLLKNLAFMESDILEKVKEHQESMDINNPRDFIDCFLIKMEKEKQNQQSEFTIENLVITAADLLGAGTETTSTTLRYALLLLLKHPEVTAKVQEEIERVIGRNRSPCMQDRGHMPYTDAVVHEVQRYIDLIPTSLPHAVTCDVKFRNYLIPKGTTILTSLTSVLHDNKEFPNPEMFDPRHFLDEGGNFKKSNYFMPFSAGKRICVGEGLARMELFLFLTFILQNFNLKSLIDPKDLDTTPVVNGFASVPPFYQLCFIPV
Chain of Cytochrome P450 2C9 (P11712 whole entry): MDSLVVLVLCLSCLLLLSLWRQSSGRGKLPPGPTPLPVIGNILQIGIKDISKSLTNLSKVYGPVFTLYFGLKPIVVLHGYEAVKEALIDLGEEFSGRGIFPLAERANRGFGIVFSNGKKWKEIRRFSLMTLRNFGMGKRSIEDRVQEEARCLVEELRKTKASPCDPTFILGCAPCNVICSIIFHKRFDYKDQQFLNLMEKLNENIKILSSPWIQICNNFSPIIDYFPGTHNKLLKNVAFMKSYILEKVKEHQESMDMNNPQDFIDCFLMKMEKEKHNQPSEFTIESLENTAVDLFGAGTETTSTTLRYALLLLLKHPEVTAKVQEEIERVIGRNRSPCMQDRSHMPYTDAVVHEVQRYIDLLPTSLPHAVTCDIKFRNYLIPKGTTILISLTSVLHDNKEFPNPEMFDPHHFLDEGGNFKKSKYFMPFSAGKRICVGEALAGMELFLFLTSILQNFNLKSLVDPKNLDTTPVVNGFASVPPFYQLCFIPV
T6 sequence (P08684 whole entry): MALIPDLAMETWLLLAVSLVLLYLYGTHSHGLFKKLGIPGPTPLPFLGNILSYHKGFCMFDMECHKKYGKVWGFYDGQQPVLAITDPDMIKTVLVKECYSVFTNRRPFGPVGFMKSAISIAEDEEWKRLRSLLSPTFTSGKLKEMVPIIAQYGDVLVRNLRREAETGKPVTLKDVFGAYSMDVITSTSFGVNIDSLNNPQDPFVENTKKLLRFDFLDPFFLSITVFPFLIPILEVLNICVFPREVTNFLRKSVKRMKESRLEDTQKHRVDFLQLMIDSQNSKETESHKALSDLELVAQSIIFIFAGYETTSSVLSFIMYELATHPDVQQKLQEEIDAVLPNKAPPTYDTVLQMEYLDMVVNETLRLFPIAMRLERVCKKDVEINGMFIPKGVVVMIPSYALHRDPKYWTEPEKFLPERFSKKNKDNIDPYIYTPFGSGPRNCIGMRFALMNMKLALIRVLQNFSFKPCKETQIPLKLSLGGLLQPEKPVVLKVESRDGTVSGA
T7 sequence (P63165 whole entry): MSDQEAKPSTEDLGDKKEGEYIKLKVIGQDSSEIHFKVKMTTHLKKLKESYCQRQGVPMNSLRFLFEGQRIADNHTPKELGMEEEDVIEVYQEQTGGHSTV
Chain of Induced myeloid leukemia cell differentiation protein Mcl-1 (Q07820 whole entry): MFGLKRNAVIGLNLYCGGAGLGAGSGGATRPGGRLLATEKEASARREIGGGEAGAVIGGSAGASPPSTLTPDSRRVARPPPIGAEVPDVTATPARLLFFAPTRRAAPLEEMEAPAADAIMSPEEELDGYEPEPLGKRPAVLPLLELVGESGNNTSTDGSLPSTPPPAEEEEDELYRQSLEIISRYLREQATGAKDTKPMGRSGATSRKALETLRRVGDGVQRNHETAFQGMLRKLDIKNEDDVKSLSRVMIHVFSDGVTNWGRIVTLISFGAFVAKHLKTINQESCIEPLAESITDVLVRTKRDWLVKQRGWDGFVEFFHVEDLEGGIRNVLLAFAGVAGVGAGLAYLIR
Chain of Trypsin (P00761 whole entry): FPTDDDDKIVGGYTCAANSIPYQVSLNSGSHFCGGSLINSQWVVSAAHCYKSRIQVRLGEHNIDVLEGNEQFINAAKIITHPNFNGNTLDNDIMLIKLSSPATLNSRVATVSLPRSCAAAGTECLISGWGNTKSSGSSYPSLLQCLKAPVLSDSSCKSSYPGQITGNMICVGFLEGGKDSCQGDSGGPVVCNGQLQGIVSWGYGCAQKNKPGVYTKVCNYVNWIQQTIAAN
Chain of FAD-linked sulfhydryl oxidase ALR (P55789 whole entry): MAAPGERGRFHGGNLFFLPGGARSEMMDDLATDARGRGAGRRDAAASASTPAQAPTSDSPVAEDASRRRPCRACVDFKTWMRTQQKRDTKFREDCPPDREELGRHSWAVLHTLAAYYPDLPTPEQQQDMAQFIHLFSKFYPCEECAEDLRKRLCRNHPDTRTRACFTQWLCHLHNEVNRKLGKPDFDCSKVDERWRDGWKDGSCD

On to `O=C(c1ccccc1C(F)(F)F)N1CCN(S(=O)(=O)c2ccccc2)CC1`, for which the IC50 (in the series on HEK293; in [1]) was > 67.6 µM (inactive) in each case.

For the compound `Clc1ccc(OCc2noc(-c3ccsc3)n2)c(Cl)c1`, the IC50 with HEK293 is > 67.5 µM (inactive); at Protein skinhead-1 it was > 100 µM (inactive); in series [1], > 67.5 µM (inactive). Also, in the series on HeLa, the AC50 is 111 µM (active).

For the compound `Nc1ccc2[nH]c(-c3ccccc3)nc2c1`, the AC50 is 2.12 µM (active) on CAAX prenyl protease 2, 3.48 µM (active) on Trypsin and 2.19 µM (active) in series [4]. Besides, the CC50 in series [2] was 100 µM (active). In addition, the IC50 in series [3] was 30.2 µM (active).

For the compound `Cc1ccc(NC(=O)NNC(=O)C2CC(c3cccnc3)=NO2)cc1` (stereo not given), the AC50 entry on Cytochrome P450 2C19 and on Cytochrome P450 2D6 was “inconclusive” throughout.

Regarding `NCCc1ccc(OCc2ccccc2)c(OCc2ccccc2)c1`, in [5], the IC50 was > 20 µM (inactive). Besides, the AC50 is 11.2 µM (active) in [6] and 30.2 µM (active) in the series with A-375.

With `CSc1nc2nc3c(c(O)n2n1)CN(Cc1ccccc1)CC3`, the AC50 at Cytochrome P450 2C9 is 15.8 µM (inconclusive); on Cytochrome P450 3A4 [7], “inconclusive”.

Take `Cc1nc(N2CCOCC2)c2c(C)c(C(=O)Nc3ccccc3C(F)(F)F)sc2n1`: the AC50 on CAAX prenyl protease 2 is 15 µM (active). Also, the EC50 in [8] was > 50 µM (active).

Take `COc1ccc(-c2cc3nc4ccccc4n3c(N)c2C#N)cc1`: the IC50 is 7.98 µM (active) in [9], 2.52 µM (active) in [10] and > 66.6 µM (inactive) in series [12]. The values for the EC50 (in series [11]; at Streptokinase A; with Streptococcus) were 1.45 µM (active), > 150 µM (not active) and 15.7 µM (active), respectively. The half-maximal activity concentration (AC50) in the series on HeLa is 143 µM (active).

For the compound `CCOC(=O)c1ccc(NC(=O)C(=O)NCC2CCCO2)cc1` (stereo not given), the AC50 was 31.6 µM (inconclusive) on Cytochrome P450 2C19 (read-out: AC50), “inconclusive” on Cytochrome P450 2D6 and 25.1 µM (inconclusive) on Cytochrome P450 2C9.

For `COC(=O)c1cccc2c1NC(=O)C2=O`, the IC50 (in the series on HEK293; in series [1]) was > 67.6 µM (inactive) each time.

Regarding `COc1ccc(-c2cn3cccc(C)c3n2)cc1F`, in the series on HeLa, the AC50 was > 350 µM (inactive).

As for `Cc1cc(C)nc(SCC(=O)N/N=C\c2sccc2C)n1`, the AC50 result on Cytochrome P450 2D6 was “inconclusive”; on Cytochrome P450 3A4 [13] it was 15.8 µM (inconclusive).

Usually AC50 stands for the concentration at which the activity in the assay is half-maximal. As usually defined, the CC50 is the concentration that lowers cell viability or growth by half. Usually EC50 stands for the concentration needed to bring the measured effect to its halfway point.
